# pEC50, pIC50: −log10 of the molar value.
# Legend:
# [1] = Inhibition of Hepatitis C virus full-length NS3/4A protease assessed as quenched-fluorogenic RET-S1 substrate cleavage incubated for 10 mins prior to substrate addition by FRET analysis; design: species or system Hepacivirus hominis
# Hepatitis C virus = test: Antiviral activity against Hepatitis C virus infected in human HuH7 cells assessed as inhibition of HCV subgenomic replicon replication after 72 hrs by ELISA; assay type: functional, organism-based, Hepacivirus hominis, Huh-7; details: Hepatitis C virus, Huh-7, 72 h; read-out: EC50
SMILES,pIC50 [1],pEC50 (Hepatitis C virus)
CC(C)(C)OC(=O)N[C@H]1CCCCC/C=C\[C@@H]2C[C@@]2(C(=O)NS(=O)(=O)N2CCNCC2)NC(=O)[C@@H]2C[C@@H](OC(=O)N3Cc4ccccc4C3)CN2C1=O,7.66,6.29
CN1CCN(S(=O)(=O)NC(=O)[C@@]23C[C@H]2/C=C\CCCCC[C@H](NC(=O)OC(C)(C)C)C(=O)N2C[C@H](OC(=O)N4Cc5ccccc5C4)C[C@H]2C(=O)N3)CC1,7.77,7.34
CC(C)N(C(C)C)S(=O)(=O)NC(=O)[C@@]12C[C@H]1/C=C\CCCCC[C@H](NC(=O)OC(C)(C)C)C(=O)N1C[C@H](OC(=O)N3Cc4ccccc4C3)C[C@H]1C(=O)N2,7.15,6.86
CC(C)(C)OC(=O)N[C@H]1CCCCC/C=C\[C@@H]2C[C@@]2(C(=O)NS(=O)(=O)Nc2ccc(Cl)cc2)NC(=O)[C@@H]2C[C@@H](OC(=O)N3Cc4ccccc4C3)CN2C1=O,8.10,7.01
COc1ccc(NS(=O)(=O)NC(=O)[C@@]23C[C@H]2/C=C\CCCCC[C@H](NC(=O)OC(C)(C)C)C(=O)N2C[C@H](OC(=O)N4Cc5ccccc5C4)C[C@H]2C(=O)N3)cc1,7.96,6.74
CC(C)(C)OC(=O)N[C@H]1CCCCC/C=C\[C@@H]2C[C@@]2(C(=O)NS(=O)(=O)Nc2ccc(C(F)(F)F)cc2)NC(=O)[C@@H]2C[C@@H](OC(=O)N3Cc4ccccc4C3)CN2C1=O,8.01,7.15
CC(C)(C)OC(=O)N[C@H]1CCCCC/C=C\[C@@H]2C[C@@]2(C(=O)NS(=O)(=O)c2ccc(Cl)s2)NC(=O)[C@@H]2C[C@@H](OC(=O)N3Cc4ccccc4C3)CN2C1=O,8.34,6.95
COCC1(S(=O)(=O)NC(=O)[C@@]23C[C@H]2/C=C\CCCCC[C@H](NC(=O)OC(C)(C)C)C(=O)N2C[C@H](OC(=O)N4Cc5ccccc5C4)C[C@H]2C(=O)N3)CC1,8.11,7.89
CCCC1(S(=O)(=O)NC(=O)[C@@]23C[C@H]2/C=C\CCCCC[C@H](NC(=O)OC(C)(C)C)C(=O)N2C[C@H](OC(=O)N4Cc5ccccc5C4)C[C@H]2C(=O)N3)CC1,8.52,8.30
CC(C)(C)OC(=O)N[C@H]1CCCCC/C=C\[C@@H]2C[C@@]2(C(=O)NS(=O)(=O)NC2CC2)NC(=O)[C@@H]2C[C@@H](OC(=O)N3Cc4ccccc4C3)CN2C1=O,8.38,7.49
CC(C)(C)OC(=O)N[C@H]1CCCCC/C=C\[C@@H]2C[C@@]2(C(=O)NS(=O)(=O)N2CCOCC2)NC(=O)[C@@H]2C[C@@H](OC(=O)N3Cc4ccccc4C3)CN2C1=O,8.36,7.28
CC(C)(C)OC(=O)N[C@H]1CCCCC/C=C\[C@@H]2C[C@@]2(C(=O)NS(=O)(=O)C(F)(F)F)NC(=O)[C@@H]2C[C@@H](OC(=O)N3Cc4ccccc4C3)CN2C1=O,8.32,6.78
CC(C)(C)OC(=O)N[C@H]1CCCCC/C=C\[C@@H]2C[C@@]2(C(=O)NS(=O)(=O)c2ccccc2)NC(=O)[C@@H]2C[C@@H](OC(=O)N3Cc4ccccc4C3)CN2C1=O,8.46,7.96
CC(C)(C)OC(=O)N[C@H]1CCCCC/C=C\[C@@H]2C[C@@]2(C(=O)NS(=O)(=O)c2ccc(Cl)cc2)NC(=O)[C@@H]2C[C@@H](OC(=O)N3Cc4ccccc4C3)CN2C1=O,8.52,7.24
COc1ccc(S(=O)(=O)NC(=O)[C@@]23C[C@H]2/C=C\CCCCC[C@H](NC(=O)OC(C)(C)C)C(=O)N2C[C@H](OC(=O)N4Cc5ccccc5C4)C[C@H]2C(=O)N3)cc1,8.39,8.00
CC(C)(C)OC(=O)N[C@H]1CCCCC/C=C\[C@@H]2C[C@@]2(C(=O)NS(=O)(=O)c2ccc(C#N)cc2)NC(=O)[C@@H]2C[C@@H](OC(=O)N3Cc4ccccc4C3)CN2C1=O,8.52,6.90
CN(C)c1ccc(S(=O)(=O)NC(=O)[C@@]23C[C@H]2/C=C\CCCCC[C@H](NC(=O)OC(C)(C)C)C(=O)N2C[C@H](OC(=O)N4Cc5ccccc5C4)C[C@H]2C(=O)N3)cc1,7.96,7.35

# These reach a higher pIC50 [1]. Values come first.
pIC50 [1],pEC50 (Hepatitis C virus),SMILES
8.55,6.97,O=C(N[C@H]1CCCCC/C=C\[C@@H]2C[C@@]2(C(=O)NS(=O)(=O)C2CC2)NC(=O)[C@@H]2C[C@@H](OC(=O)N3Cc4ccccc4C3)CN2C1=O)O[C@@H]1CCOC1
8.66,6.66,O=C(N[C@H]1CCCCC/C=C\[C@@H]2C[C@@]2(C(=O)NS(=O)(=O)C2CC2)NC(=O)[C@@H]2C[C@@H](OC(=O)N3Cc4ccccc4C3)CN2C1=O)O[C@H]1CCOC1
8.66,7.01,O=C(N[C@H]1CCCCC/C=C\[C@@H]2C[C@@]2(C(=O)NS(=O)(=O)C2CC2)NC(=O)[C@@H]2C[C@@H](OC(=O)N3Cc4ccccc4C3)CN2C1=O)OC1CCOCC1
8.82,7.12,CC(C)(C)OC(=O)N[C@H]1CCCC/C=C\[C@@H]2C[C@@]2(C(=O)NS(=O)(=O)C2CC2)NC(=O)[C@@H]2C[C@@H](OC(=O)N3Cc4cccc(F)c4C3)CN2C1=O
8.82,7.65,CC(C)(C)OC(=O)N[C@H]1CCCCCC[C@@H]2C[C@@]2(C(=O)NS(=O)(=O)C2CC2)NC(=O)[C@@H]2C[C@@H](OC(=O)N3Cc4cccc(F)c4C3)CN2C1=O
9.15,8.24,CC(C)(C)OC(=O)N[C@H]1CCCCCCC[C@@H]2C[C@@]2(C(=O)NS(=O)(=O)C2CC2)NC(=O)[C@@H]2C[C@@H](OC(=O)N3Cc4cccc(F)c4C3)CN2C1=O
8.74,7.15,CC(C)(C)OC(=O)N[C@H]1COCCC/C=C\[C@@H]2C[C@@]2(C(=O)NS(=O)(=O)C2CC2)NC(=O)[C@@H]2C[C@@H](OC(=O)N3Cc4cccc(F)c4C3)CN2C1=O
8.92,7.48,CC(C)(C)OC(=O)N[C@H]1CCOCC/C=C\[C@@H]2C[C@@]2(C(=O)NS(=O)(=O)C2CC2)NC(=O)[C@@H]2C[C@@H](OC(=O)N3Cc4cccc(F)c4C3)CN2C1=O
8.66,7.52,CC(C)(C)OC(=O)N[C@H]1CCCCC/C=C\[C@@H]2C[C@@]2(C(=O)NS(=O)(=O)Nc2ccccc2)NC(=O)[C@@H]2C[C@@H](OC(=O)N3Cc4ccccc4C3)CN2C1=O
9.00,8.40,O=C(N[C@H]1CCCCC/C=C\[C@@H]2C[C@@]2(C(=O)NS(=O)(=O)C2CC2)NC(=O)[C@@H]2C[C@@H](OC(=O)N3Cc4ccccc4C3)CN2C1=O)OC1CCCC1
8.82,7.27,O=C(N[C@H]1CCCCC/C=C\[C@@H]2C[C@@]2(C(=O)NS(=O)(=O)C2CC2)NC(=O)[C@@H]2C[C@@H](OC(=O)N3Cc4ccccc4C3)CN2C1=O)OCCF
9.22,7.32,O=C(CCC(F)(F)F)N[C@H]1CCCCC/C=C\[C@@H]2C[C@@]2(C(=O)NS(=O)(=O)C2CC2)NC(=O)[C@@H]2C[C@@H](OC(=O)N3Cc4ccccc4C3)CN2C1=O
8.62,7.42,CC(C)(C)NC(=O)N[C@H]1CCCCC/C=C\[C@@H]2C[C@@]2(C(=O)NS(=O)(=O)C2CC2)NC(=O)[C@@H]2C[C@@H](OC(=O)N3Cc4ccccc4C3)CN2C1=O
9.15,7.59,O=C(NC1CCCC1)N[C@H]1CCCCC/C=C\[C@@H]2C[C@@]2(C(=O)NS(=O)(=O)C2CC2)NC(=O)[C@@H]2C[C@@H](OC(=O)N3Cc4ccccc4C3)CN2C1=O
9.15,6.55,CC(C)(C)OC(=O)N[C@H]1CCCCC/C=C\[C@@H]2C[C@@]2(C(=O)NS(=O)(=O)c2cc(F)ccc2F)NC(=O)[C@@H]2C[C@@H](OC(=O)N3Cc4ccccc4C3)CN2C1=O
8.60,7.57,CC(C)(C)OC(=O)N[C@H]1CCCCC/C=C\[C@@H]2C[C@@]2(C(=O)NS(=O)(=O)c2cccs2)NC(=O)[C@@H]2C[C@@H](OC(=O)N3Cc4ccccc4C3)CN2C1=O
9.30,7.49,CC(C)(C)OC(=O)N[C@H]1CCCCC/C=C\[C@@H]2C[C@@]2(C(=O)NS(=O)(=O)c2cc(Cl)sc2Cl)NC(=O)[C@@H]2C[C@@H](OC(=O)N3Cc4ccccc4C3)CN2C1=O
9.30,8.51,CC(C)(C)OC(=O)N[C@H]1CCCCC/C=C\[C@@H]2C[C@@]2(C(=O)NS(=O)(=O)C2(C)CC2)NC(=O)[C@@H]2C[C@@H](OC(=O)N3Cc4ccccc4C3)CN2C1=O
8.80,7.60,CC(C)(C)OC(=O)N[C@H]1CCCCC/C=C\[C@@H]2C[C@@]2(C(=O)NS(=O)(=O)C2(Cc3ccccc3)CC2)NC(=O)[C@@H]2C[C@@H](OC(=O)N3Cc4ccccc4C3)CN2C1=O
8.62,8.19,CC(C)(C)OC(=O)N[C@H]1CCCCC/C=C\[C@@H]2C[C@@]2(C(=O)NS(=O)(=O)N2CCC2)NC(=O)[C@@H]2C[C@@H](OC(=O)N3Cc4ccccc4C3)CN2C1=O
8.59,7.93,CC(C)(C)OC(=O)N[C@H]1CCCCC/C=C\[C@@H]2C[C@@]2(C(=O)NS(=O)(=O)N2CCCC2)NC(=O)[C@@H]2C[C@@H](OC(=O)N3Cc4ccccc4C3)CN2C1=O

# — ChEMBL document CHEMBL3120136 (J Med Chem, 2014)
